According to US11021445B2, “Carboxylic acid derivative as AT2R receptor antagonist” (SHANDONG DANHONG PHARMACEUTICAL CO., LTD., priority 2017, dated 2021):
Like-named read-outs stand apart in the source and are kept apart here.

Tests used:
[1] = Plasma protein binding rate (PPB) test, equilibrium dialysis; assay type: in vitro ADME, Sprague-Dawley rats; conditions: Sprague-Dawley, rat, 37°C, read-out: Plasma Protein Binding (%) SD Rat Plasma (converted)
Experimental: (§1) In vitro protein binding rates of 0.2 μM, 2 μM, 10 μM of test compounds with Sprague-Dawley rats, beagle dogs, human plasma were determined by equilibrium dialysis.
(§2) The experiment will use a 96-well equilibrium dialysis plate (HTDialysis device) to determine the plasma protein binding rate of the to-be-tested compound and the control compounds.
(§3) Prior to the start of the experiment, the dialysis membrane was pretreated according to the instructions for use and the dialysis unit was assembled as required.
(§4) Blank plasma was taken from CD-1 mice, Sprague-Dawley rats, Beagle dogs, cynomolgus monkeys and humans (an anticoagulant is EDTA-K2, which is a commercial product purchased, or is collected and prepared by the Drug Evaluation Department of Wuxi AppTech, and is stored in a refrigerator below −60° C. before use). A certain volume of the to-be-tested compound or the control compound working solution was added to prepare plasma samples of the compound to be tested at a concentration of 0.2, 2, 10 μM and plasma samples of the control compound at a concentration of 2 μM (n=1). The organic phase content was ≤1%. First, a certain volume of a plasma sample containing the to-be-tested compound and the control compound was taken out into the sample receiving plate as a sample at zero time (T0 sample, n=3); secondly, a plasma sample containing the to-be-tested compound and the control compound was added to one side of the dialysis membrane (plasma end, n=3), and a certain volume of dialysis buffer (buffer end, n=3) was added to the other side of the dialysis membrane; then the dialysis plate was placed in a humidified incubator with 5% CO2 for incubation for 4 hours at 37±1° C.
(§5) After the incubation, a certain volume of the dialyzed buffer sample (F sample) and the dialyzed plasma sample (T sample) were transferred to the sample receiving plate, and all samples were subjected to protein precipitation for LC/MS/MS analysis. And the dissociation rate of the compound (% Unbound) was calculated by the following formula: % Unbound=100*[F]/[T], % Bound=100−% Unbound. Wherein, % Unbound is the dissociation rate of the compound; % Bound is the binding rate of the compound; [F] is the concentration of the compound at the buffer end of the dialysis plate; [T] is the concentration of the compound at the plasma end of the dialysis plate; and the experimental results are shown in Table 7.

[2] = target: T1, hAT2 (Homo sapiens, UniProt P50052); test: hAT2 receptor binding assay (SPA, [125I]-Sar1-Ile8-Angiotensin II); conditions: membrane of HEK-293 cells overexpressing hAT2; 0.1 nM 125I ligand
T1 construct: expressed in transfected cells; host or cells: HEK-293
T1 sequence (P50052 1-363): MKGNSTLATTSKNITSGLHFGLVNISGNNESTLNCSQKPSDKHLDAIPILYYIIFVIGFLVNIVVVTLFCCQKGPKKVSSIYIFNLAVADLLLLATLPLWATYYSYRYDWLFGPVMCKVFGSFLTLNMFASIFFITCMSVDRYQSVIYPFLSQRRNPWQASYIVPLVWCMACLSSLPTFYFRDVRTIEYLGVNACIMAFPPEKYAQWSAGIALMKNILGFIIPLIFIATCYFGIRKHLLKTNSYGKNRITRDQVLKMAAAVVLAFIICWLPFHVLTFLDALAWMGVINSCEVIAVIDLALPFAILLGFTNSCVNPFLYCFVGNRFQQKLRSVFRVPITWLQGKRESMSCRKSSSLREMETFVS
Experimental: hAT2 Receptor Binding Assay
Protease inhibitor mixture, free of ethylenediaminetetraacetic acid-1 tablets (Roche #11873580001) (50 mL plus one piece)
Experimental Methods and Steps
The reference ligand PD123319 and the test compound were prepared into a 750 μM mother liquor by DMSO; each compound was prepared into a solution of 8 concentration gradients (up to a concentration of 750 μM, 3-fold dilution) and 10 μl of the solution was added to a master of a 384-well plate per well.
The SPA beads were prepared to a mother liquor of 25 mg/ml by the buffer;
The isotope [^125I]-Sar1-Ile8-Angiotensin II was prepared into a mother liquor of 50 μCi/ml by adding pure water.
The cell membrane overexpressing hAT2 in HEK-293 cells was prepared to 2.5 mg/ml by the buffer.
200 nl of compound was aspirated from the mother plate with ECHO to each well of the 384-well test plate. ZPE was added to an equal volume of DMSO. (The concentration of the test compound in the reaction was diluted by 250 times).
A 50 ml membrane solution containing 10 μg/μl of magnetic beads and 0.05 μg/μl of AT2 was prepared, placed on a shaker and uniformly mixed. (100 rpm, 30 min). The test plate finally contained an hAT2 membrane with 1.25 μg/well and magnetic beads with 250 μg/well.
A 3.2 ml membrane liquid mixture was added to the compound test plate by using a Multidrop Combi pipette, and 25 μl was added to each well.
A 0.2 nM solution was prepared with 50 μCi/ml of isotope [^125I]-Sar1-Ile8-Angiotensin II mother liquor by the buffer, and 0.2 nM of ^125I was added to the compound test plate with a Multidrop Combi pipette. A volume of 25 μl was added to each well. The final concentration of ^125I isotope is 0.1 nM.
The prepared test plate was placed on a shaker overnight at room temperature at 200 rpm.
The test plate was centrifuged with a centrifuge at 1200 rpm for 1 min.
The centrifuged test plate was read with Microbeta.

[3] = Plasma protein binding rate (PPB) test, equilibrium dialysis; assay type: in vitro ADME; conditions: human, 37°C
Experimental: as §1, §2, §3, §4, §5

[4] = Determination of kinetic solubility; assay type: physicochemical; conditions: buffer solution pH 7.4, aqueous buffer, kinetic from dmso stock, pH 7.4, 24 hours at room temperature, theoretical maximum 200 μM
Experimental: The to-be-tested compound was dissolved in DMSO to prepare a 10 mmol/L stock solution. 980 μL of dissolution medium was pipetted into a 2 mL screw-capped glass vial by using a pipette (Eppendorf Research Company). 20 μL of the stock solution of each test compound and the QC sample were added to a buffer solution corresponding to a kinetic detection solution of pH 7.4. The final concentrations of the test compound and DMSO solution were 200 μM and 2%, respectively. The cover of the medicine bottle was screwed. The theoretical maximum concentration is 200 μM. The mixture was shaken at 880 rpm for 24 hours at room temperature. The vial was centrifuged for 30 minutes at 13,000 rpm. 200 μL of the supernatant was added to a 96-well plate by using a digital pipette. The solubility of the test compound was determined by high performance liquid chromatography, and the experimental results are shown in Table 2.

Work on `N#Cc1ccc2c(c1OCc1ccccc1)C[C@@H](C(=O)O)N(C(=O)[C@H](OC1CCCC1)c1ccccc1)C2` [Compound 111] yielded a fraction unbound at 4 h [1] of 0.002, an IC50 [2] of 15.9 nM and a fraction unbound at 4 h [3] of 0.002. For the same compound, the solubility at 24 h [4] was greater than 200 µM.
